One compound from patent publication US10168342B2, “Lipid probes and uses thereof” (THE SCRIPPS RESEARCH INSTITUTE, priority 2015, dated 2019) can be followed below.

Test in all cases: isoTOP-ABPP mapping of AEA-DA-modified peptides in Neuro2a cells
Holding throughout (format): cell-based

Assay [1] deals with T1, AEA-DA-modified peptides in Neuro2a cells (Mus musculus, UniProt O09061).
T1 construct: endogenous in cells; host or cells: Neuro2a
The note with it: AEA-DA-modified peptide PSMB1 O09061 127-146, SEQ ID NO 90; probe 100 μM, 12 replicates.

Assay [2] has as its target T2, AEA-DA-modified peptides in Neuro2a cells (Mus musculus, UniProt O35459).
T2 construct: endogenous in cells; host or cells: Neuro2a
The note with it: probe 100 μM, 12 replicates.

For assay [3], the target named is T3, AEA-DA-modified peptides in Neuro2a cells (Mus musculus, UniProt P00375).
T3 construct: endogenous in cells; host or cells: Neuro2a
The note with it: AEA-DA-modified peptide DHFR P00375 20-34, SEQ ID NO 30; probe 100 μM, 12 replicates.

Assay [4] addresses T4, AEA-DA-modified peptides in Neuro2a cells (Mus musculus, UniProt P48678).
T4 construct: endogenous in cells; host or cells: Neuro2a
The note with it: AEA-DA-modified peptide LMNA P48678 281-297, SEQ ID NO 55; probe 100 μM, 12 replicates.

In assay [5] the target is T5, AEA-DA-modified peptides in Neuro2a cells (Mus musculus, UniProt P70333).
T5 construct: endogenous in cells; host or cells: Neuro2a
The note with it: AEA-DA-modified peptide HNRNPH 2 P70333 50-69, SEQ ID NO 50; probe 100 μM, 12 replicates.

Assay [6] deals with T6, AEA-DA-modified peptides in Neuro2a cells (Mus musculus, UniProt Q61425).
T6 construct: endogenous in cells; host or cells: Neuro2a
The note with it: AEA-DA-modified peptide HADH Q61425 250-272, SEQ ID NO 47; probe 100 μM, 12 replicates.

Assay [7] addresses T7, AEA-DA-modified peptides in Neuro2a cells (Mus musculus, UniProt Q8BVU5).
T7 construct: endogenous in cells; host or cells: Neuro2a
The note with it: AEA-DA-modified peptide NUDT9 Q8BVU5 230-242, SEQ ID NO 73; probe 100 μM, 12 replicates.

For assay [8], the target named is T8, AEA-DA-modified peptides in Neuro2a cells (Mus musculus, UniProt Q8K411).
T8 construct: endogenous in cells; host or cells: Neuro2a
The note with it: AEA-DA-modified peptide PITRM1 Q8K411 364-386, SEQ ID NO 87; probe 100 μM, 12 replicates.

The target in assay [9] is T9, AEA-DA-modified peptides in Neuro2a cells (Mus musculus, UniProt Q8VDN2).
T9 construct: endogenous in cells; host or cells: Neuro2a
The note with it: AEA-DA-modified peptide ATP1A1 Q8VDN2 360-386, SEQ ID NO 17; probe 100 μM, 12 replicates.

Assay [10] addresses T10, AEA-DA-modified peptides in Neuro2a cells (Mus musculus, UniProt Q99KQ4).
T10 construct: endogenous in cells; host or cells: Neuro2a
The note with it: probe 100 μM, 12 replicates.

In assay [11] the target is T11, AEA-DA-modified peptides in Neuro2a cells (Mus musculus, UniProt Q9CZN7).
T11 construct: endogenous in cells; host or cells: Neuro2a
The note with it: probe 100 μM, 12 replicates.

T10 sequence (Q99KQ4 whole entry): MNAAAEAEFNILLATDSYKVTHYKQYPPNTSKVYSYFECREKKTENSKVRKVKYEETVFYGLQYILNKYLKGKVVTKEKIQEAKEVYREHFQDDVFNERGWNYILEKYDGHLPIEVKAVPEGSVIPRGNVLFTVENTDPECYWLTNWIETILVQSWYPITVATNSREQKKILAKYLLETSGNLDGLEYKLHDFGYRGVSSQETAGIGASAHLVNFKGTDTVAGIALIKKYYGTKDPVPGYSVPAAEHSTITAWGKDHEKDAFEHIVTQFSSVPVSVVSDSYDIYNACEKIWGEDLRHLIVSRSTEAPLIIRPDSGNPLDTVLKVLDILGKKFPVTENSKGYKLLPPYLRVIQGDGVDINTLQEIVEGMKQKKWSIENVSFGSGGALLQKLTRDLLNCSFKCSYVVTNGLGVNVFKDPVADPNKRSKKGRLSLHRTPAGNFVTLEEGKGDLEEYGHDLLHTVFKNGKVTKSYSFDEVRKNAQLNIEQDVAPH
T11 sequence (Q9CZN7 30-504): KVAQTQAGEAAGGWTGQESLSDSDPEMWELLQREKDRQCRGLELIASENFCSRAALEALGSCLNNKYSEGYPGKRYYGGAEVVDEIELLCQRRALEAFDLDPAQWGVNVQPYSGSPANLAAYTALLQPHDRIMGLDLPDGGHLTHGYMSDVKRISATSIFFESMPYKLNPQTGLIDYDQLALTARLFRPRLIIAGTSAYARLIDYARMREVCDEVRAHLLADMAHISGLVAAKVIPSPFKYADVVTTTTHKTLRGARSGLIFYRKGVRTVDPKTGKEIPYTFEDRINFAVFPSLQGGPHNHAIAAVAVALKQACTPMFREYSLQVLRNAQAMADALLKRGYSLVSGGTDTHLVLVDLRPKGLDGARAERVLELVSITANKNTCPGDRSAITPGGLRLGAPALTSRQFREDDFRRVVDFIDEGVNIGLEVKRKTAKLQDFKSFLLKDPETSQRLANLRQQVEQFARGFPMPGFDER
T2 sequence (O35459 34-327): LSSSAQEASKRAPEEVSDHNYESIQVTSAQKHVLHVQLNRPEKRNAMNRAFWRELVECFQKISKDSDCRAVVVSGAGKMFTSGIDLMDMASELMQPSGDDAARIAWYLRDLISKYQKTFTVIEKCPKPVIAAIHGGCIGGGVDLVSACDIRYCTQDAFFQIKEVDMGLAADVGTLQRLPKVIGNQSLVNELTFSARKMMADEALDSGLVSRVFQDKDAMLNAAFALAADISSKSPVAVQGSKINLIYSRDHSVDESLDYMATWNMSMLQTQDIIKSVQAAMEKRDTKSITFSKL
T8 sequence (Q8K411 16-1036): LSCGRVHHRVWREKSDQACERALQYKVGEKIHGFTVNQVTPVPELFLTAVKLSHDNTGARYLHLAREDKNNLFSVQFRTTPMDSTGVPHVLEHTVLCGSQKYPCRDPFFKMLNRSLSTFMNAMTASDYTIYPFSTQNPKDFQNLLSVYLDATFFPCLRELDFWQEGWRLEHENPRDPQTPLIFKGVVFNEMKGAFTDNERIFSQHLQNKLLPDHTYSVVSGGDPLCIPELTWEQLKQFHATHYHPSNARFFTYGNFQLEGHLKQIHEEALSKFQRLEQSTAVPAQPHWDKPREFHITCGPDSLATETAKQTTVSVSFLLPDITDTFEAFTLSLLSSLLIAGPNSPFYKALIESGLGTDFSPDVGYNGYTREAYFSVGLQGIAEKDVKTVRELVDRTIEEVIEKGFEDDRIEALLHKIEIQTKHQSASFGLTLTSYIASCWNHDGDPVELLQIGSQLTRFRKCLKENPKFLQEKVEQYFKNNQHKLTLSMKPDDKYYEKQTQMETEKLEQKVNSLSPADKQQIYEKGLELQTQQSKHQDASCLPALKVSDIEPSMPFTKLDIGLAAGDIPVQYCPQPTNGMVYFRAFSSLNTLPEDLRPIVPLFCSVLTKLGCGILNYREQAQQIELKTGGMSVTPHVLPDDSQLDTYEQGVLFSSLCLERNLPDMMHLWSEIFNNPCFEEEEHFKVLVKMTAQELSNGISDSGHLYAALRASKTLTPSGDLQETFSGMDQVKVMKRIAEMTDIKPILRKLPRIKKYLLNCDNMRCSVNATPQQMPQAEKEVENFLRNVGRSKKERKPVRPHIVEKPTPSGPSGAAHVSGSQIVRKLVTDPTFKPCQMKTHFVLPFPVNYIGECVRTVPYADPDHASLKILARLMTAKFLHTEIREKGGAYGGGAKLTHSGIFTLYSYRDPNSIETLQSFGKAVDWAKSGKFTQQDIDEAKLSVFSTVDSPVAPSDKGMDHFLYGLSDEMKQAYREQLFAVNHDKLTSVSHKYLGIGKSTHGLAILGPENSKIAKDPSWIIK
T6 sequence (Q61425 13-314): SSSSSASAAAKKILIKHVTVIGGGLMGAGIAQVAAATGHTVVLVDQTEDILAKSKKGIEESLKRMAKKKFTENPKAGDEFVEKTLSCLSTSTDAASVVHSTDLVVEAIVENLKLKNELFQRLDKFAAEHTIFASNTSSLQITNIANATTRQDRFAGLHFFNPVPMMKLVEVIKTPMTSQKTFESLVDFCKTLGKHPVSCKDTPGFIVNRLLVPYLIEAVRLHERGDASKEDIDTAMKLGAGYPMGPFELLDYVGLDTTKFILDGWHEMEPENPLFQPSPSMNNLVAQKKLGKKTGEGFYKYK
T1 sequence (O09061 28-240): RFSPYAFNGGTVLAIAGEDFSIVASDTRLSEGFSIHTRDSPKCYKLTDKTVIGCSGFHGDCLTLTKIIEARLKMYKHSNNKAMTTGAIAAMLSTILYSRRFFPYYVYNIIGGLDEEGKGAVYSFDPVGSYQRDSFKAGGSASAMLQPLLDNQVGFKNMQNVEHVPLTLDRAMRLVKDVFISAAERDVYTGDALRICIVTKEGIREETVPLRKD
T7 sequence (Q8BVU5 47-350): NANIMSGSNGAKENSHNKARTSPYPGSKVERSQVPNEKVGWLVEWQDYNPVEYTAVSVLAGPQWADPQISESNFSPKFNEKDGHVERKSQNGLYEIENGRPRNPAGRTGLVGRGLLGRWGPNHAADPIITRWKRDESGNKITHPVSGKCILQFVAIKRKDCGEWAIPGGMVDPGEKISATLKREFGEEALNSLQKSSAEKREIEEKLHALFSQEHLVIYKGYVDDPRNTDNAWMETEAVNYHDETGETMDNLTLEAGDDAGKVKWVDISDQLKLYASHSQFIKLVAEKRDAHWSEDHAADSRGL
T5 sequence (P70333 whole entry): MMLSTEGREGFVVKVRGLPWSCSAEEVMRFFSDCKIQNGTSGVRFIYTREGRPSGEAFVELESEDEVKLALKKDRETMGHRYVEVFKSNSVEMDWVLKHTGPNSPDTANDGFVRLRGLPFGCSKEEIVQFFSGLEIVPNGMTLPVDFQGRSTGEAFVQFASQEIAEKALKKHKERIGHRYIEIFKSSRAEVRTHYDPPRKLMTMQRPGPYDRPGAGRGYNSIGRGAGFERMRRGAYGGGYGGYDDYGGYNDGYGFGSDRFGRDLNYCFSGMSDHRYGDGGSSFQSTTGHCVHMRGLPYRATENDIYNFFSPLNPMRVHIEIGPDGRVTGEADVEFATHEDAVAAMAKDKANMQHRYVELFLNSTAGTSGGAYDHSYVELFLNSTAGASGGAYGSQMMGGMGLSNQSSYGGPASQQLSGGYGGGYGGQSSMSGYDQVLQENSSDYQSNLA
T4 sequence (P48678 whole entry): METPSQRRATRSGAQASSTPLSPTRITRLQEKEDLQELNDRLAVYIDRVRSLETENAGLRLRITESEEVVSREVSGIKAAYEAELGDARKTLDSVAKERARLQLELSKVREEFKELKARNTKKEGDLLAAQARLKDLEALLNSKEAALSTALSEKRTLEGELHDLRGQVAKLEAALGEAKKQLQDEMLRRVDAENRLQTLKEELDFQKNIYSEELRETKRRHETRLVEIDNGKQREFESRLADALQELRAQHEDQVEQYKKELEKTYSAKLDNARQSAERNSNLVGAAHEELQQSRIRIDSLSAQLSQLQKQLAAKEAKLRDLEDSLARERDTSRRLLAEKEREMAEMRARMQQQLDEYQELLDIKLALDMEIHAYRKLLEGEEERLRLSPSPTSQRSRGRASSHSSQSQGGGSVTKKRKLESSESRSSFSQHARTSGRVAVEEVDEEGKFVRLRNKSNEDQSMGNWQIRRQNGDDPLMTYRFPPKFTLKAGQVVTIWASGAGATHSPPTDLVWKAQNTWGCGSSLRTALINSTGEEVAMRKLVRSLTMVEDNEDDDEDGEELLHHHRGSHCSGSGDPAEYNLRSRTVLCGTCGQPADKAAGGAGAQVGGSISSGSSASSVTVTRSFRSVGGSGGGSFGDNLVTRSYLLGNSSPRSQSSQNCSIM
T3 sequence (P00375 whole entry): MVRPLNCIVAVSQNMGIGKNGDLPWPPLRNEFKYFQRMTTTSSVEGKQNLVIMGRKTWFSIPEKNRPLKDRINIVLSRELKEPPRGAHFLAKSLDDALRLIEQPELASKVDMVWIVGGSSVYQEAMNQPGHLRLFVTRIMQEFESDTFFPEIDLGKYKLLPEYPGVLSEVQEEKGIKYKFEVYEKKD

Take `C#CCCCC1(CC/C=C\C/C=C\C/C=C\CCCC(=O)NCCO)N=N1` [AEA-DA, (5Z,8Z,11Z)-N-(2-hydroxyethyl)-14-(3-(pent-4-yn-1-yl)-3H-diazirin-3-yl)tetradeca-5,8,11-trienamide]: the Times observed in assay [1] was 8; in assay [2] (AEA-DA-modified peptide ECH1 O35459 185-211, SEQ ID NO 32), 4; in assay [2] (AEA-DA-modified peptide ECH1 O35459 196-211, SEQ ID NO 33) it was 8; in [3], 4; in assay [4], 2; in [5], 9. For the same compound, the Times observed in assay [6] was found to be 10; in assay [7], 7; in assay [8] it was 2; in [9] it was 2; in assay [10] (AEA-DA-modified peptide NAMPT Q99KQ4 175-190, SEQ ID NO 64) it was 10; in assay [10] (AEA-DA-modified peptide NAMPT Q99KQ4 303-324, SEQ ID NO 65), 2. The Times observed is recorded as 9 in [11] (AEA-DA-modified peptide SHMT2 Q9CZN7 105-122, SEQ ID NO 101) and 3 in [11] (AEA-DA-modified peptide SHMT2 Q9CZN7 161-182, SEQ ID NO 102).
